We go through twelve molecules from patent US7501397B2, “Helical peptidomimetics with enhanced activity” (The Brigham and Women's Hospital, Inc., priority 2004, dated 2009).

For experiment [1], the system named is Aβ production in Chinese hamster ovary (CHO) cells stably transfected with human APP. Put plainly: cell-based assay of total Aβ production in CHO cells stably transfected with human APP. An excerpt:
Based on the helical model for the APP transmembrane domain, short peptides were designed to adopt a similar conformation that block γ-secretase activity. Judicious replacement of selected residues of short APP-derived peptides with 2-aminoisobutyric acid (Aib), a known helix-inducing amino acid (19, 20), provided peptides that, in principle, mimic the γ-secretase cleavage site on one face of the helix, with Aib residues on the other face. Aib-containing peptides were identified that inhibit Aβ production in APP-transfected cells with 50 percent inhibitory concentrations (IC50's) as low as 2 μM. […] The crystal structure of this compound has been determined, and the peptide is fully helical (19). In certain embodiments the compounds of the invention have structures that are based on the partial APP sequence Val-Gly-Gly-Val-Val-Ile-Ala-Thr-Val-Ile-Val-Ile (SEQ ID NO:12; see FIG. 1). Basing the structures of the compounds of the invention on the partial APP sequence could enhance in vivo specificity of the compounds.
The top set of peptidomimetics (SEQ ID NOs: 1-5) was designed considering the cleavage leading to Aβ42, and the bottom set (SEQ ID NOs: 6-10) was designed considering the cleavage site leading to Aβ40. IC50 is the concentration of compound that reduced production of total Aβ by 50% in a cell-based assay using Chinese hamster ovary (CHO) cells stably transfected with human APP.
Starting from the reference D-decapeptide having SEQ ID NO:10 (IC50=90 nM), the enantiomers of the helical peptide L-series were tested for inhibitory activity. […] This greater than 40-fold loss of activity compared to the cell-free assay may be due to the need to enter into and/or cross cell membranes or some susceptibility to metabolic degradation.

Experiment [2] has as its target T1, γ-secretase (Homo sapiens, UniProt P49768). The experiment can be described thus: cell-free γ-secretase assay using detergent-solubilized membranes from HeLa cells and a recombinant APP-based substrate. The experiment is classed as biochemical. On the set-up: detergent-solubilized membranes from HeLa cells; endogenous in cells; host or cells: HeLa cells (detergent-solubilized membranes). How it is done:
Compounds were tested in a γ-secretase assay using detergent-solubilized membranes from HeLa cells and a recombinant APP-based substrate (Table 2, 18). […] Moreover, the γ-secretase inhibition appears to show dependence on length.

For experiment [3], the target named is T1, γ-secretase. The conditions noted are these: photoaffinity labeling; Kornilova et al. 2005; cited from earlier work.
Experiment [4] addresses T1, γ-secretase. On the set-up: detergent-solubilized membranes from HeLa cells; endogenous in cells; host or cells: HeLa cells (detergent-solubilized membranes). The following applies: value from Ref. 22, cited from earlier work.
[5] abbreviates: APP-transfected CHO cells, read-out: IC50, cell-based assay.
Setting [6] is: CHO cells stably transfected with human APP, total Aβ, read-out: IC50 (concentration that reduced production of total Aβ by 50%).

Where two headings read alike, the source gives them in different places. Non-standard residues stand in square brackets, D forms with d. Residues, ends and D or L forms follow the SMILES beside them. *: point of attachment. Boc = CC(C)(C)OC(=O)*; Aib = CC(C)(N)C(=O)O; Bn = c1ccc(C*)cc1

In the case of `CC[C@@H](C)[C@@H](NC(=O)[C@H](NC(=O)[C@H](NC(=O)C(C)(C)NC(=O)CNC(=O)[C@H](NC(=O)OC(C)(C)C)C(C)C)C(C)C)C(C)C)C(=O)NC(C)(C)C(=O)N[C@@H](C(=O)N[C@@H](C(=O)NC(C)(C)C(=O)N[C@@H](C(=O)N[C@@H](C(=O)NC(C)(C)C(=O)OC)[C@H](C)CC)C(C)C)C(C)C)[C@H](C)OCc1ccccc1` [SEQ ID NO:18 D-peptide, Boc-Val-Gly-Aib-Val-Val-Ile-Aib-Thr(OBz)-Val-Aib-Val-Ile-Aib-OMe] (Boc-[dV]G[Aib][dV][dV][dI][Aib][dT](Bn)[dV][Aib][dV][dI][Aib]-OMe), the IC50 in experiment [1] (setting [5]) was found to be 0.009 ± 0.001 µM; in experiment [2] (read-out: IC50, cell-free γ-secretase assay) it was 0.00014 µM. Besides, in experiment [1] (cell-based vs cell-free IC50), the “loss of activity in cell-based assay compared to the cell-free assay” value is “greater than 40 fold”. Further, in experiment [2], the “IC50, in words” value is “subnanomolar”. For the same molecule, the “times more active than the other analogs of the D-series” value in experiment [2] (D-series, cell-free assay) was 100 times. Consider “Ac-Val-Gly-Aib-Val-Val-Ile-Aib-Thr(OBz)-Val-Aib-Val-Val-Aib-NH2 (Ac-VG[Aib]VVI[Aib]XV[Aib]VV[Aib]-NH2; not fully specified (some residues); printed as Ac-Val-Gly-Aib-Val-Val-Ile-Aib-Thr(OBz)-Val-Aib-Val-Val-Aib-NH2) [SEQ ID NO:23 D-peptide]”, for which the “site of interaction with γ-secretase” value in experiment [3] was “not only interact with the initial substrate-binding site but also extend into the active site”. As to “Boc-Ala-Thr(OBz)-Aib-Ile-Val-Aib-OMe [SEQ ID NO:1]”, the IC50 in experiment [1] (setting [6]) came to 25 µM. Regarding “Boc-D-Val-Gly-Aib-D-Val-D-Val-D-BPA-Aib-D-Thr(OBz)-D-Val-Aib-OMe [SEQ ID NO:11]”, the IC50 in experiment [1] (setting [5]) turned out to be 0.1 µM.

Regarding “Boc-Gly-Aib-Val-Val-Ile-Aib-Thr(OBz)-Val-Aib-OMe [SEQ ID NO:9]”, the IC50 in experiment [1] (setting [6]) was found to be 3 µM. On to “Boc-Gly-Val-Aib-Ile-Ala-Thr(OBz)-Aib-Ile-Val-Aib-OMe [SEQ ID NO:5]”, for which the IC50 in experiment [1] (setting [6]) was determined as 5 µM. On the same count and under the same terms, the value for “Boc-Ile-Ala-Thr(OBz)-Aib-Ile-Val-Aib-OMe [SEQ ID NO:2]” was 15 µM; that for “Boc-Val-Aib-Ile-Ala-Thr(OBz)-Aib-Ile-Val-Aib-OMe [SEQ ID NO:4]” was 2 µM. Take “Boc-Val-Gly-Aib-Val-Val-Ile-Aib-Thr(OBz)-Val-Aib-OMe [SEQ ID NO:10 D-peptide]”: the IC50 in experiment [4] (50% inhibition of Aβ40 production, read-out: Cell-free Assay IC50) is 0.09 µM. Besides, in experiment [3], the “site of interaction with γ-secretase” value is recorded as “interacts with the initial substrate-binding site, but not the active site”. As for “Boc-Val-Gly-Aib-Val-Val-Ile-Aib-Thr(OBz)-Val-Aib-OMe [SEQ ID NO:10 L-peptide]”, the IC50 in experiment [1] (setting [6]) was 3 µM; in experiment [4] (reference decapeptide, read-out: IC50, cell-free γ-secretase assay), 30 µM. For “Boc-Val-Ile-Aib-Thr(OBz)-Val-Aib-OMe [SEQ ID NO:6]”, the IC50 in experiment [1] (setting [6]) came to 12 µM.

Regarding “Boc-Val-Val-Ile-Aib-Thr(OBz)-Val-Aib-OMe [SEQ ID NO:7]”, the IC50 in experiment [1] (setting [6]) turned out to be 6 µM.
